# Laboratory results as given in US20120136416A1, “Caged Neuropeptides: modulation and measurement of synapse and signaling activity; and methods for drug evaluation, pharmaceuticals preparation and treatment” (PRESIDENT AND FELLOWS OF HARVARD COLLEGE, priority 2010, published 2012).
# Assays:
# [1] = tested on: locus coeruleus (LC) neurons; assay: Whole-cell recordings from locus coeruleus neurons in acute brain slices, local perfusion or UV uncaging; type: cell-based, rat
# [2] = tested on: CA1 region of the hippocampus; assay: Extracellular field potential recordings (population spike) in acute hippocampal slices, UV uncaging; type: cell-based, mice
# Experimental: Preliminary electrophysiological evaluation was carried out in transverse hippocampal slices from P15-18 mice and focused on inhibitory neurons, the predominant cells expressing Mu and Delta opioid receptors in the CA1 region. Initial neurophysiological evaluations were carried out in acute hippocampal slices from P24-30 mice. […] Extracellular field potential recordings reveal this as an increase in the population spike (pSpike) amplitude in response to Schaeffer collateral stimulation at 0.1 Hz. […] These experiments confirmed that photolysis in living tissue elicits a physiological response.
# [3] = target: human kappa opioid receptors (OPRK1) (Homo sapiens, UniProt P41145); type: cell-based
# Chain of human kappa opioid receptors (OPRK1) (P41145 whole entry, looked up): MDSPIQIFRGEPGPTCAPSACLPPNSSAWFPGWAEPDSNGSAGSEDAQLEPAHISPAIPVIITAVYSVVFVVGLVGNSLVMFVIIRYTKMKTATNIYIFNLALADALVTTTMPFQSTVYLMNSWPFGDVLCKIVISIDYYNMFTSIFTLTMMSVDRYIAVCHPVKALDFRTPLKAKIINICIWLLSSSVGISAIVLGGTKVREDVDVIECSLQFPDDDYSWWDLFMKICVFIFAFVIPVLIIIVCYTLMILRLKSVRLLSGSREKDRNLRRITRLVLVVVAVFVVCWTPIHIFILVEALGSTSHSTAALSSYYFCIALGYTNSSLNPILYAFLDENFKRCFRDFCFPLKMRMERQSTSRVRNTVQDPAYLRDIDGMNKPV
compound,measurement,setting,value
"[Cl][Cd][Cl] [Cd^2+, CdCl2]",effect on residual Ba^2+-insensitive outward current,[1],unable to block or occlude
Nc1ccncc1 [4-AP],effect on residual Ba^2+-insensitive outward current,[1],unable to block or occlude
"[Ba+2].[Cl-].[Cl-] [Ba^2+, BaCl2]",outward current blocked,[1],80%
CC1(C)[C@@H](OC(=O)CCC(=O)O)CC[C@]2(C)[C@H]3C(=O)C=C4[C@@H]5C[C@@](C)(C(=O)O)CC[C@]5(C)CC[C@@]4(C)[C@]3(C)CC[C@@H]12 [carbenoxolone],effect on responses to the uncaging stimuli,"[1]; 100 uM, n=10 cells",not significantly attenuated
C=CCN1CC[C@]23c4c5ccc(O)c4O[C@H]2C(=O)CC[C@@]3(O)[C@H]1C5 [naloxone],effect on light-evoked outward current,"[1]; 2 μM, uncaging of 10 μM CYLE",blocked
same,effect on light-evoked pSpike increases,[2],blocked
ZD7288,effect on residual Ba^2+-insensitive outward current,[1],unable to block or occlude
"CC(C)C[C@H](NC(=O)[C@H](Cc1ccccc1)NC(=O)CNC(=O)CNC(=O)[C@@H](N)Cc1ccc(O)cc1)C(=O)O [L-Enk, Leu-Enkephalin]",activation of kappa receptors,[3],did not activate
